Here are results for 3 compounds from patent US12280026B2, “Use of repirinast in the prophylaxis or treatment of renal fibrosis or kidney disease” (ALGERNON PHARMACEUTICALS INC., priority 2018, dated 2025).

Common to all, as to format: in vivo
Test [1] relates to C57BL/6 mice with UUO surgical ligation. The test can be described thus: Example 1: UUO mice, kidney weight evaluation (ligated vs non-ligated kidney). The note with it: doses of Table 1. The method, then: (§1) Male 9-12 week old C57BL/6 mice of 23-25 grams body weight were used. All mice were acclimated for a minimum of 5 days prior to the start of the study and housed individually in microisolators throughout the study in a 12:12 light-dark cycle on a standard maintenance mouse chow diet (Harlan Teklad 2018) with food and water given ad libitum. Prior to surgery, all mice were weighed for baseline body weight.
The UUO surgical intervention was performed according to previously described methods known in the art (Le Meur Y et al., Macrophage accumulation at a site of renal inflammation is dependent on the M-CSF/c-fms pathway, J Leukocyte Biol., 72:530-537; 2002). […]
(§2) The dose selected for the animal studies was determined by taking the maximum known human daily dose, dividing by the average weight of an adult (˜60-70 kg) to get a human mg/kg dose. […]
Kidney weight: The UUO was then examined in situ to ensure that the surgical ligation ties remained patent. […] Weights of both kidneys were measured using a laboratory balance.
Kidney Weight Evaluation: Kidney weight indicating, which indicates functional and pathological changes in the kidney, was evaluated by measuring the weight of both the ligated (UUO) and non-ligated kidneys as previously described. […]

The nature of test [2]: Example 1: UUO mice, mean body weight change following surgery. The note with it: Example 1, mostly post-surgical day 14, male C57BL/6 mice, PO QD days 1-14, doses of Table 1. The protocol: as §1
(§3) The UUO surgical intervention was performed according to previously described methods known in the art (Le Meur Y et al., Macrophage accumulation at a site of renal inflammation is dependent on the M-CSF/c-fms pathway, J Leukocyte Biol., 72:530-537; 2002).
(§4) All mice were first anesthetized by intraperitoneal injection with a rodent cocktail (ketamine 10 mg/mL and Xyaline 1 mg/mL) in normal saline (10 μL/g body weight). Pedal reflex and movement of the vibrissae were used to determine the state of unconsciousness. A state of unconsciousness was confirmed after a period of about 5 minutes in all animals. All mice were then shaved on the left side of the abdomen. The shaved area was first swabbed with iodine and then swabbed with alcohol. A vertical incision was made through the skin with a #22 scalpel and the skin was then retracted. A further incision of about 2.5 cm was then made through the peritoneum avoiding any major blood vessels. The peritoneum was then retracted and the left kidney was exposed.
(§5) The left kidney was then brought to the surface by hooking the ureter directly beneath the kidney with sterile forceps and gently manipulating the kidney upward. The ureter was ligated at two points directly below the kidney with 5-0 surgical silk with excess suture cut away and discarded post-ligation. The kidney was then gently placed back to its correct anatomical position and the abdomen was lavaged with 1 mL sterile saline to replenish fluid loss. The peritoneum and then skin were sutured with 5-0 Mersilene, and the incision site was gently wiped with iodine. All mice were then placed individually in clean cages that were set on top of a thermal blanket until recovery at about 30-60 minutes later. In some examples, sham surgery was performed as a control by following all steps of the UUO surgical intervention procedure except ligation.
(§6) Following surgery, the mice were divided into 14 individual study groups of 8 mice each and, following post-surgical recovery, administered a once-daily oral treatment for 14 days. The mice in 12 of the 14 study groups (hereafter known as “treatment groups”) had all received the UUO surgical ligation and were treated individually with a distinct pharmacologic compound as set out in Table 1. The mice in 2 of the 14 study groups were treated individually with a pharmaceutically acceptable vehicle with no active ingredient. The pharmaceutically acceptable vehicle in all groups was 0.5% carboxymethyl cellulose (CMC). All mice were sacrificed with CO2 on post-surgical day 15.
as §2
Body weight: The body weights were measured on days 1, 2, 5, 8, 10 and 14 using a laboratory balance.
Body weights were measured on post-surgical days 1, 2, 5, 8, 10 and 14 as previously described. The mean body weight change of each study group was calculated using the body weight average of all mice in each study group.

In test [3] the test system is C57BL/6 mice with UUO surgical ligation. As to the kind of experiment: Example 1: UUO mice, renal fibrosis evaluation (Sirius Red histology score). The note with it: Bemithyl 200, Emoxypine 160, Suplatast Tosylate 60, Udenafil 40, Telmisartan 5 mg/kg PO QD. The protocol: as §1, §3, §4, §5, §6, §2
Histopathology: Formalin-fixed kidney cross-section samples were subjected histopathological scoring with Sirius Red staining, and imaged at a magnification of ×20, using standard techniques. All three sections were stained and evaluated. […] The presence of interstitial damage and severity score was assessed according to the following criteria: 0=normal, 1=light, 2=moderate, 3=severe. […]

The test system is the same in test [4]. The test can be described thus: Example 1: UUO mice, renal function evaluation (plasma BUN, creatinine). Conditions: Example 1; for Reduction in BUN compared to vehicle, significance in words: Bonferroni post-test, Suplatast Tosylate 60, Iguratimod 15, Lobenzarit 48, Actarit 60, Udenafil 40 mg/kg PO QD; for BUN in comparison to control groups, in words: UUO, male C57BL/6 mice, PO QD days 1-14, doses of Table 1. The method, then: as §1, §3, §4, §5, §6
The dose selected for the animal studies was determined by taking the maximum known human daily dose, dividing by the average weight of an adult (˜60-70 kg) to get a human mg/kg dose. Then that number was multiplied by 12 to convert to a mouse dose based on conventional dosing tables. See Nair and Jacob, J Basic Clin Pharm March 2016-May 2016, 7(2):27-31.
Serum collection: A blood sample was then collected from all mice and plasma analyzed for urea nitrogen and creatinine. Plasma was stored at −80° C. for possible future analysis.
Renal Function Evaluation: Renal function and disease progression was evaluated by BUN (blood urea nitrogen) as previously described. The BUN of each study group consisted of the BUN average of all mice in each study group.

SMILES strings stand for the structures. “Also recorded” adds a separate entry of the source.

Take `CCn1c(=O)c2c(nc(/C=C/c3ccc(OC)c(OC)c3)n2C)n(CC)c1=O` [Istradefylline, 8-[(E)-2-(3,4-dimethoxyphenyl)vinyl]-1,3-diethyl-7-methyl-3,7-dihydro-1H-purine-2,6-dione]: the “Ligated kidney weight in comparison to control groups, in words” value in test [1] is “increased in comparison to the remaining 13 study groups”. Moreover, the “Mean body weight change, comparison with control groups, in words” value in test [2] is reported as “greater decrease in body weight”.
For the compound `CCOCC(O)COc1ccc(NC(=O)CC[S+](C)C)cc1.Cc1ccc(S(=O)(=O)[O-])cc1` (stereo not drawn) [Suplatast Tosylate, (3-{[4-(3-ethoxy-2-hydroxypropoxy)phenyl]amino}-3-oxopropyl)(dimethyl)sulfonium 4-methylbenzenesulfonate], the “Kidney fibrosis / Histology Score, significance and comparison in words” value in test [3] (4-methylbenzenesulfonate) was “the same as the positive control treatment group; also recorded: significant reductions in kidney fibrosis; also recorded: significant reduction in fibrosis compared to vehicle”. Further, in test [4], the “Reduction in BUN compared to vehicle, significance in words” value was “significant reductions in BUN” and the “BUN in comparison to control groups, in words” value is reported as “decreased in comparison to the sham surgery control group”. For the same compound, in test [2], the “Mean body weight change, comparison with control groups, in words” value is listed as “comparable to that of the surgery vehicle control group”.
For the compound `CCCOc1ccc(S(=O)(=O)NCCC2CCCN2C)cc1-c1nc(=O)c2c([nH]1)c(CCC)nn2C` (stereo not drawn) [Udenafil], in test [3], the “Kidney fibrosis / Histology Score, significance and comparison in words” value was “significant reductions in kidney fibrosis; also recorded: significant reduction in fibrosis compared to vehicle”. Moreover, in test [4], the “Reduction in BUN compared to vehicle, significance in words” value is “significant reductions in BUN”; the “BUN in comparison to control groups, in words” value was “less renal dysfunction and disease progression than the positive control treatment; also recorded: decreased in comparison to the sham surgery control group”.
